From US12577235B2, “Crystalline form of CXCR2 antagonist and application thereof” (Shenzhen Optimum Biological Technology Co., Ltd, priority 2019, dated 2026)

Experiments:
[1] = Plasma pharmacokinetic assay in rats; assay type: in vivo, Lewis rats
Method: In this plasma pharmacokinetic assay, 4 male Lewis rats were used and randomized into two groups, with 2 animals in each group. The animals in the first group were given 2 mg/kg of the test compound by intravenous injection and the animals in the second group were given 10 mg/kg of the test compound by intragastric administration. An aqueous solution of 1% DMSO/20% PEG400/79% (HP-b-CD) was used as the vehicle, and the resulting intravenous and intragastric formulations (adjusted to pH=2.78) were clear solutions. Blood samples were collected from saphenous veins of animals at 0.0830, 0.25, 0.5, 1, 2, 4, 6, 8 and 24 hours post-dose for the intravenous injection group, and at 0.25, 0.5, 1, 2, 4, 6, 8 and 24 hours post-dose for the intragastric administration group, with 3 samples at each time point. Plasma samples of the intragastric administration group were cryopreserved at −80° C. and thawed before LC-MS/MS sample analysis. Acetonitrile containing internal standard was added to the thawed plasma samples at a certain ratio to precipitate proteins.
The mixture was centrifuged, and the supernatant was subjected to analysis by LC-MS/MS. An API4000 or 5500 system equipped with ACQUITY UPLC BEH C18 (2.1×50 mm, 1.7 μm) column and ESI positive or negative ion source was used. Each analysis batch included standard samples with 8 concentrations. A curve of the ratio of the peak areas of the test compound to the internal standard (IS) vs. the concentration of the test compound in the plasma sample was plotted, and linear regression was performed using 1/X^2 as weighting coefficient to give a regression equation between the measured response and the concentration. Each analysis batch also included corresponding quality control samples. Data processing was performed using Phoenix 6.3 WinNonlin® to give corresponding PK parameters.

[2] = target: T1, CXCR2 (Homo sapiens, UniProt P25025); experiment: PathHunter CXCR2 β-arrestin cell assay (CXCL8 agonist, chemiluminescence); assay type: cell-based; conditions: CXCR2 β-arrestin cells, CXCL8 at EC80
T1 sequence (P25025 1-360): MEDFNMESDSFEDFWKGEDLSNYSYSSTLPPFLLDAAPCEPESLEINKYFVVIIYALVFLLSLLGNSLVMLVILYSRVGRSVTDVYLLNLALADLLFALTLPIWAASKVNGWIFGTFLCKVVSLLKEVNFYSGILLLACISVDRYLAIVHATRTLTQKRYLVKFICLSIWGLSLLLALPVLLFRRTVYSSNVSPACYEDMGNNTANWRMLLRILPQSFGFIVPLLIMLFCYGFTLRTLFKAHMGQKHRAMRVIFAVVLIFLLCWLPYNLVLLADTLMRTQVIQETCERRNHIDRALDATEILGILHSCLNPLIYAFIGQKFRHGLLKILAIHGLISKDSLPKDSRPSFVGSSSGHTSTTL
Method: CXCR2 β-arrestin cells (DiscoverX) of PathHunter® were cultured in standard conditions and inoculated at 20 μL/well to a 384-well white microplate. Before testing, the cells were incubated at 37° C. for an appropriate period of time. The test compound was serially 3-fold diluted in DMSO to give 8 concentrations. Shortly before testing, the serially diluted test samples were further diluted with test buffer to 5 folds of the test concentration. 5 μL of further diluted test samples were added to the cells and the cells were incubated at 37° C. for 30 min. The concentration of vehicle was 1%. 5 μL of 6×EC80 agonist (CXCL8) buffer was then added to the cells, and the cells were incubated at 37° C. for 90 min. The test signal was generated by adding 15 μL (50% v/v) of PathHunter detection mixture reagent in one portion and subsequently incubating the cells for 1 h. The chemiluminescence signal of the microplate was read by a PerkinElmer Envision™ instrument. The biological activities of the test compounds were analyzed by CBIS data analysis kit (ChemInnovation, CA), shown as IC50 values.

[3] = tested on: PPE-induced SD rat COPD model; experiment: Therapeutic effect on PPE-induced COPD model; assay type: in vivo, SD rats; conditions: 30 mpk intragastric daily, 4 weeks
Text: • To test the therapeutic effect of the compound on PPE-induced SD rat COPD model. Materials: • Animals: SD rats (male, 160-180 g, 6 weeks age) • Test compounds: porcine pancreatic elastase (Sigma, 0.068 U/μL); Danirixin, compound 1. • Grouping: 1) vehicle group • 2) COPD model group (porcine pancreatic elastase modeling group/solvent group) • 3) PPE+Danirixin (30 mpk) • 4) PPE+compound 1 (10 mpk) • 5) PPE+compound 1 (30 mpk) Procedures: • 1. Modeling: PPE was given retrolingually. • 2. Administration: an aqueous solution of 1% DMSO/20% PEG400/79% (HP-b-CD) was used as the vehicle, and the drugs were administrated intragastrically everyday at a volume of 2 mL/rat for 4 weeks. • 3. Endpoint: On day 29, pulmonary function test, sample collection, and inflammatory cell count in bronchoalveolar lavage fluid.
Bronchoalveolar lavage: The rats were sacrificed, and dissected at the neck. Trachea intubation was performed. 1 mL of cold […] at 4° C. was infused for 3 lavages, and the lavage fluids were combined. The combined lavage fluids were centrifuged at 1200 rpm/min for 5 min, and the supernatant was discarded. The cell suspension was collected;

[4] = tested on: rat COPD model induced by smoking combined with lipopolysaccharide; experiment: Anti-inflammation effect in rat COPD model induced by smoking combined with lipopolysaccharide; assay type: in vivo, SD rats; conditions: Danirixin 30 mpk; crystalline form A 3-30 mpk
Method: Modeling: the animal model was prepared by exposing the rats to cigarette smoke once daily for 14 days. The rats were smoked for 90 min per day in 2 portions with a break of 10 min. 18 Marlboro cigarettes (with a tar content of 11 mg) were given each time. LPS was administered dropwise via airway at 200 μg/rat once weekly. The administration dropwise was performed on days 6 and 13 of smoke exposure (on the day of LPS administration dropwise, only LPS was administered dropwise for modeling without smoke exposure). • 2. Administration: an aqueous solution of 1% DMSO/20% PEG400/79% (HP-b-CD) was used as the vehicle, and the drugs were administrated intragastrically everyday at a volume of 5 mL/kg for 2 weeks. • 3. Endpoint: On day 15, pulmonary function test, sample collection, inflammatory cell count in bronchoalveolar lavage fluid, pathological analysis, and lung tissue MPO and MMP9 assay were carried out. Procedures of Pulmonary Function Test:
After the last smoking and modeling were finished, pulmonary function was tested for each group of animals on the second day, and pulmonary resistance and compliance were detected under stimulation of methacholine chloride at different doses. The animals were anesthetized by intraperitoneal injection with […] of 25% urethane. After the animals were deeply anesthetized, airway intubation was performed by separating airways, and meanwhile, jugular veins were separated. After breathing stably, the animals were put into a plethysmograph. Drug administration pipelines were inserted into the separated jugular veins. After the animals were in rest state for 1-2 min and the breathing curves were stable, then detection was started. Rats were administered with methacholine chloride at doses of 0, 0.0083, 0.025, 0.075, 0.225, 0.675 mg/kg by jugular vein intubation. The increase in airway resistance and decrease in pulmonary compliance were observed after each administration. After 1-2 min, the parameters returned to near the baseline of the previous concentration of methacholine chloride, and methacholine chloride of the next concentration was injected. After the detection was finished, subsequent alveolar lavage and sample collection were performed.
After the pulmonary function test was finished, the rats were sacrificed by cervical dislocation. After the animals were confirmed dead, the lungs were carefully separated, a lavage syringe was inserted into the main trachea and fixed with 2-0 silk thread. The right lung was ligated. 5 mL of low-temperature normal saline was slowly injected through the lavage syringe. The normal saline was slowly extracted after confirming that the normal saline was injected into the left lung. The operation was repeated twice. By the three lavages, a total of 15 mL of normal saline was injected for lavage. The obtained BALF was injected into a 15 mL centrifuge tube and preserved in a storage box at 4° C. for subsequent BALF cells counting.
After BALF was collected, the right lung which was not infused was taken off and weighted. The two upper lobes of the right lung were put into a cryopreservation tube, frozen in a freezer at −80° C. for later use. Lower lobe tissues were fixed in formalin.
1 mL of homogenously mixed BALF was added into 1 mL of a solution of 1% glacial acetic acid in normal saline. Cells were counted using a hemocytometer. The remaining lavage fluid was centrifuged at 1500 r/min for 10 min at 4° C. to give a cell mass. The cells were resuspended in 200 μL of normal saline, uniformly coated on a glass slide and stained by Wright-Giemsa stain. Macrophages, neutrophils and lymphocytes in a total of 200 cells were counted under a microscope, and the proportions of the cells was calculated. For lavage fluid collection, animals failing the lavage fluid collection were not summarized. […]

half-life ([1]; rat, plasma, po, male Lewis rats, 10 mg/kg intragastric, read-out: Intragastric administration Half life (T1/2) (converted)) [h] | Cmax ([1]; rat, plasma, po, male Lewis rats, 10 mg/kg intragastric, read-out: Intragastric administration Maximum plasma concentration (Cmax)) [µM] | AUC ([1]; rat, plasma, po, male Lewis rats, 10 mg/kg intragastric, read-out: Intragastric administration Plasma exposure (AUC)) [µM·h] | clearance ([1]; rat, plasma, male Lewis rats, 2 mg/kg intravenous, read-out: Intravenous injection Clearance (CL)) [mL/min/kg] | Pharmacokinetic properties (in words) ([1]; rats) | IC50 [2] [nM] | SMILES | Count of immune inflammatory cells (neutrophils, macrophages, lymphocytes) in bronchoalveolar lavage fluid [3] | Anti-inflammatory effect (summary) [4]
4.22 | 3 | 31.3 | 5.07 | good pharmacokinetic properties | 22 | O=C(Nc1ccc(Cl)c(S(=O)(=O)[C@H]2CCCNC2)c1O)N[C@@H]1CCCc2cc(C(F)(F)F)oc21 [Compound 1] |  | 
 |  |  |  |  |  | Cc1c(F)cccc1NC(=O)Nc1ccc(Cl)c(S(=O)(=O)[C@H]2CCCNC2)c1O [Danirixin, reference compound] | significantly reduced | significant anti-inflammatory effect
